In paper PMC6757289, “Design and Characterization of SGK3-PROTAC1, an Isoform Specific SGK3 Kinase PROTAC Degrader” (ACS Chemical Biology, 2019):

Experiments:
Type in all cases: cell-based
CDK18 = target: T1, CDK18 (Homo sapiens, UniProt Q07002); assay: TMT global proteomic analysis of HEK293 cells; settings: HEK293, 0.3 μM, 8 h
T1 construct: global proteomic analysis of HEK293 cells treated in the presence or absence of 0.3 μM SGK3-PROTAC1; endogenous in cells; host or cells: HEK293
Experimental: To establish the specificity of SGK3-PROTAC1 employing an unbiased approach, we performed quantitative Tandem–Mass–Tag (TMT)-labeled global proteomic analysis of HEK293 cells treated in the presence or absence of 0.3 μM SGK3-PROTAC1 compared to either 0.3 μM cisSGK3-PROTAC1 or DMSO for 8 h. Experiments were undertaken in triplicate, and analysis in Proteome Discoverer v2.2 using the Mascot search engine allowed relative quantification of 8766 proteins.
Figure 4 TMT proteomic analysis of HEK293 cells treated with SGK3-PROTAC1. (A) Cells were treated with DMSO (control), SGK3-PROTAC1 (0.3 μM), or cisSGK3-PROTAC1 (0.3 μM) for 8 h and lysed. Lysates were subjected to immunoblot analysis with the indicated antibodies. (B) Lysates were examined by quantitative proteomics. […]
Cell culture and proteomic sample preparation
Cells pellets were lysed with 2 ml of lysis buffer (8 M Urea, 50 mM Ammonium bicarbonate containing protease inhibitor and phosphatase inhibitor). The sample were left on ice for 15 min and were then sonicated for 5 min in ice-cold water bath under high intensity with 30 sec on and off. After sonication, benzonase® endonuclease (Merck Millipore) with the volume ratio of 1: 100 were added into the lysate to degrade DNA and RNA. The lysate were then centrifuged at 12,000 rpm for 15 min at 4 °C, and supernatants were transferred into new eppendorf tubes. The protein concentration were measured with BCA assay (Pierce™ BCA Protein Assay Kit, Thermo). The lysate from each sample was reduced with 5 mM DTT at 45 °C for 30 min. Lysates were briefly centrifuged and were cool down to room temperature before alkylation in the dark with 10 mM iodoacetamide at room temperature. The alkylation was then quenched by the addition of 5 mM DTT. Samples were first digested by Lys-C with the weight ratio of 1:200 (w/w) for 4 h at 30 °c. Then, sample were diluted with 50 mM ammonium bicarbonate to 1.5 M Urea concentration. Samples were then digested with trypsin (Pierce trypsin, Thermo) at an enzyme to protein ratio of 1:50 (w/w) at room temperature with gentle shaking for overnight.
The digest was stopped by the addition of 1% TFA (v/v), centrifuged at 10,000 g for 10 min at room temperature.
The supernatant were desalted on 200 mg SepPak tC18 cartridge (Waters). Desalted peptides were dried by vacuum centrifugation using Speedvac (Thermo).
TMT labelling and Basic C18 reverse phase (bRP) chromatography fractionation Each sample (200 μg of peptides each) was re-suspended in 100 μL of 100 mM TEAB buffer. The TMT labelling reagents were equilibrated to room temperature and 41 μL anhydrous acetonitrile was added to each reagent channel and softly vortexed for 10 min. Peptides were transferred to the corresponding TMT channels and incubated for 1 h at room temperature. The reaction was quenched with 8 μL of 5% hydroxylamine. To ensure complete labelling, 1 µg of labelled samples from each channel were analyzed by LC-MS/MS prior to mix. After evaluation, the complete TMT labelled 9 samples were then combined, acidified and dried. Sep-Pak desalting was then performed and the elution was dried to completeness.
Ultimate 3000 high-pressure liquid chromatography (HPLC) system (Dionex) were used for basic C18 reverse phase chromatography fractionation operating at 569 µL/min with two buffers: buffer A (10 mM ammonium formate, pH 10) and buffer B (80% ACN, 10 mM ammonium formate, pH 10). […]

ZR-75-1 cells = assay: Cell growth (confluency, Incucyte S3); settings: for growth in combination with GDC0941 or AZD5363: 1 μM GDC0941 or AZD5363, SGK3-PROTAC1/cisSGK3-PROTAC1 0.3 μM, 14H 3 μM
Experimental: (§1) Figure 6 SGK3-PROTAC1-mediated degradation of SGK3 further inhibiting the growth of cancer cell lines treated with PI3K-Akt pathway inhibitors. CAMA-1 (A, C) and ZR-75-1 (B, D) were treated with compounds as indicated either as monotherapy or in combination, and confluency was measured on the Incucyte S3 every 4 h for up to 4 weeks.
(§2) For growth assays, ZR-75-1 cells were seeded in 96-well plates at a density of 6000 cells/well and left to adhere overnight. Cells were then treated with compounds as described in the figure legends and imaged every 4 h on the Incucyte S3 (Essen Bioscience) for up to 4 weeks to give a measure of cell confluency. Media were refreshed every 4–5 days.
(§3) Supplementary Figure S3. SGK3-PROTAC compounds have no effect on cell growth. CAMA-1 and ZR-75-1
(§4) confluency was m easured every 4 h on Incucyte S3.
(§5) (1 picture or pasted object on this page, not shown here)

CAMA-1 cells = assay: Cell growth (confluency, Incucyte S3); settings: for growth in combination with GDC0941 or AZD5363: 1 μM GDC0941 or AZD5363, SGK3-PROTAC1/cisSGK3-PROTAC1 0.3 μM, 14H 3 μM
Experimental: as §1, §2, §3, §4, §5

T1 sequence (Q07002 whole entry): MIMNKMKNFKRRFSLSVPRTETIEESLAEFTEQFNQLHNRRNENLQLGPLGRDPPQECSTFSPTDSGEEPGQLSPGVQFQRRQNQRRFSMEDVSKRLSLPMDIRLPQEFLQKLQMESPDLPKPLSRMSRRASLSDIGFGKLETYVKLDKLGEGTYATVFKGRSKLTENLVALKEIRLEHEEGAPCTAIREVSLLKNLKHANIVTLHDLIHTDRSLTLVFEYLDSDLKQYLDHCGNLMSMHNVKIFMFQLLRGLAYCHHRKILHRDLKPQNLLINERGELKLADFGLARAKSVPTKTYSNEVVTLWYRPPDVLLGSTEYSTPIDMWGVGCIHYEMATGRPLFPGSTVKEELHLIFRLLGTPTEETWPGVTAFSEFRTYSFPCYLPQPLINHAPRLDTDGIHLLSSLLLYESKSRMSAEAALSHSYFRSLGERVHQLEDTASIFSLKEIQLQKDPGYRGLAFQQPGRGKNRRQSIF

Compound: Cc1ccc(F)c(S(=O)(=O)Nc2ccc(-c3nc(OC[C@H]4CN(CCCCCCOCCOCCOCC(=O)N[C@H](C(=O)N5C[C@H](O)C[C@H]5C(=O)NCc5ccc(-c6scnc6C)cc5)C(C)(C)C)CCO4)c4cn[nH]c4n3)cc2)c1 [SGK3-PROTAC1]
- Abundances (Grouped) (CDK18): 66.1
- Ratio: (SGK3-PROTAC1) / (cSGK3-PROTAC1) (CDK18): 0.727
- Ratio: (compound) / (DMSO) (CDK18): 0.652
- growth, compound alone (ZR-75-1 cells; ZR-75-1): no effect on growth
- suppression of growth compared with 14H (3 μM) (ZR-75-1 cells; ZR-75-1, 0.3 μM, with AZD5363 1 μM): to a similar extent
- inhibition of cell growth compared with 14H (3 μM) (ZR-75-1 cells; ZR-75-1, 0.3 μM, with GDC0941 1 μM): to a greater extent
- growth in combination with GDC0941 or AZD5363 (ZR-75-1 cells; ZR-75-1): further reduced the growth
- growth, compound alone (CAMA-1 cells; CAMA-1): no effect on growth
- suppression of growth compared with 14H (3 μM) (CAMA-1 cells; CAMA-1, 0.3 μM, with AZD5363 1 μM): to a similar extent
- inhibition of cell growth compared with 14H (3 μM) (CAMA-1 cells; CAMA-1, 0.3 μM, with GDC0941 1 μM): to a greater extent
- growth in combination with GDC0941 or AZD5363 (CAMA-1 cells; CAMA-1): further reduced the growth

Compound: Cc1ccc(F)c(S(=O)(=O)Nc2ccc(-c3nc(OC[C@H]4CN(CCCCCCOCCOCCOCC(=O)N[C@H](C(=O)N5C[C@@H](O)C[C@H]5C(=O)NCc5ccc(-c6scnc6C)cc5)C(C)(C)C)CCO4)c4cn[nH]c4n3)cc2)c1 [cisSGK3-PROTAC1]
- Abundances (Grouped) (CDK18): 126.5
- Ratio: (compound) / (DMSO) (CDK18): 1.144
- growth in combination with GDC0941 or AZD5363 (ZR-75-1 cells; ZR-75-1): minimal effect
- growth in combination with GDC0941 or AZD5363 (CAMA-1 cells; CAMA-1): minimal effect
